According to US20160128982A1, “ANTIMICROBIAL COMPOSITIONS AND METHODS OF USE” (DERMCARE-VET PTY LTD, priority 2013, published 2016):

How the values were obtained:
[1] = test system: Candida albicans; experiment: Agar dilution MIC and FICI (Example 2); format: cell-based; settings: miconazole alone
Procedure: (§1) The MIC of PHMB, miconazole and mixtures of PHMB and miconazole were determined by adding varying concentrations of each component or their combination to molten Mueller-Hinton agar and SAB agar. The miconazole was initially dissolved in propylene glycol but dilutions were prepared by diluting this solution with water.
(§2) The concentrations of miconazole, PHMB or combination of PHMB and miconazole tested included:
(§3) A drop of microbial suspension containing one of: • a) Staphylococcus pseudintermedius and • b) Candida albicans
(§4) was added to a MH agar plate and SAB plate respectively of each concentration of each concentration of miconazole, PHMB and combinations thereof and the MH plates were incubated for 24 to 48 hours at 37° C. and the SAB plates were incubated at 20 to 35° C. for 48 hours. Two isolates of Staphylococcus pseudintermedins of different origin were used.
(§5) After incubation the plates were examined to determine the lowest concentration that inhibited growth of the microbe.
(§6) The concentrations were used to calculate the Fractional Inhibitory Concentration Index (FICI) which is a measure of synergism between the components in the combination. The FICI is calculated using the following equations:
(§7) FICMICONAZOLE=MICMICONAZOLE+PHMB/MICMICONAZOLE
(§8) FICPHMB=MICPHMB+MICONAZOLE/MICPHMB
(§9) FICI=FICMICONAZOLE+FICPHMB
(§10) FICI≦0.5 Indicates synergy between components
(§11) FICI>0.5-4.0 indicates no interaction between components
(§12) FICI>4.0 indicates antagonism between components

[2] = test system: Staphylococcus pseudintermedius; experiment: Agar dilution MIC and FICI (Example 2); format: cell-based
Procedure: as §1, §2, §3, §4, §5, §6, §7, §8, §9, §10, §11, §12

[3] = test system: S. pseudintermedius isolates; experiment: Agar dilution MIC and FICI, isolates from dogs (Example 3); format: cell-based, Staphylococcus pseudintermedius; settings: miconazole alone
Procedure: (§13) The miconazole was initially dissolved in propylene glycol but dilutions were prepared by diluting this solution with water. […] Two isolates of Staphylococcus pseudintermedins of different origin were used. After incubation the plates were examined to determine the lowest concentration that inhibited growth of the microbe. The concentrations were used to calculate the Fractional Inhibitory Concentration Index (FICI) which is a measure of synergism between the components in the combination. The FICI is calculated using the following equations: […]≦0.5 Indicates synergy between components FICI>0.5-4.0 indicates no interaction between components FICI>4.0 indicates antagonism between components The procedure from Example 2 was repeated with different bacterial and fungal isolates obtained from dogs with bacterial or fungal infections. Eight S. pseudintermedius isolates obtained from eight different dogs and three M. pachydermatis isolates from three different dogs were analysed.

[4] = test system: M. pachydermatis isolates; experiment: as above; format: cell-based, Malassezia pachydermatis; settings: miconazole alone
Procedure: as §13

[5] = test system: Staphylococcus pseudintermedius; experiment: Well diffusion, zone of inhibition on Mueller-Hinton agar; format: cell-based; settings: 37° C. 18 to 24 hours; for Zone of Inhibition: 50 μL per well
Procedure: (§14) 1. To determine whether propylene glycol was a suitable solvent to solubilize miconazole. A Mueller-Hinton agar (MH) plate containing a well was inoculated with Staphylococcus pseudintermedius and a Sabouraud dextrose agar (SAB) plate containing a 6 mm well was inoculated with Malassezia pachydermatis. The wells were filled with 50 μL propylene glycol and the MH plate were incubated at 37° C. for 18 to 24 hours and the SAB plate was incubated at 30 to 35° C. for 72 hours. The plates were then observed for any inhibition of microbial growth around the well.
(§15) 2. To determine suitable concentrations of miconazole and PHMB, MH agar plates containing wells were inoculated with S. pseudintermedius and SAB plates containing wells were inoculated with M. pachydermatis. The wells were filled with 50 μL of varying concentrations of miconazole or PHMB. The MH plates were incubated at 37° C. for 18 to 24 hours and the SAB plates were incubated at 30 to 35° C. for 48 hours.
(§16) After incubation, the diameter of the zone of inhibition around the well was measured.

[6] = test system: Malassezia pachydermatis; experiment: Well diffusion, zone of inhibition on Sabouraud dextrose agar; format: cell-based
Procedure: as §14, §15, §16

Clc1ccc(COC(Cn2ccnc2)c2ccc(Cl)cc2Cl)c(Cl)c1 (centres unmarked) [miconazole]
MIC Micon % [1]: 0.00095% | MIC Micon % ([2]; miconazole alone, two isolates of different origin): 0.00012% | concentration at which an antimicrobial effect begins ([2]; used alone): about 0.00012 wt % | MIC miconazole ([3]; isolate 1): 0.00012% | MIC miconazole ([3]; isolate 2): 0.00012% | MIC miconazole ([3]; isolate 3): 0.00012% | MIC miconazole ([3]; isolate 4): 0.00012% | MIC miconazole ([3]; isolate 5): 0.00012% | MIC miconazole ([3]; isolate 6): 0.00012% | MIC miconazole ([3]; isolate 7): 0.00012% | MIC miconazole ([3]; isolate 8): 0.00012% | MIC miconazole ([4]; isolate 1): 0.00003% | MIC miconazole ([4]; isolate 2): 0.00006% | MIC miconazole ([4]; isolate 3): 0.000015% | Zone of Inhibition ([5]; Miconazole concentration 0.0009%): 14-17 mm | Zone of Inhibition ([5]; Miconazole concentration 0.0019%): 14-16 mm | Zone of Inhibition ([5]; Miconazole concentration 0.0039%): 17-18 mm | Zone of Inhibition ([6]; Miconazole concentration 0.0009%, 50 μL per well, 30 to 35° C. 48 hours): 25 mm

CC(O)CO (centres unmarked) [propylene glycol]
inhibition of microbial growth around the well ([5]; 50 μL propylene glycol per well): No zone of inhibition | inhibition of microbial growth around the well ([6]; 50 μL propylene glycol in 6 mm well, 30 to 35° C. 72 hours): No zone of inhibition
